In one assay the test system is Hepatitis C virus. The assay can be described thus: Effective concentration required to reduce Hepatitis C virus. Type of assay: functional, Hepacivirus hominis.
Assay [1] concerns HL-60. The assay can be described thus: In vitro inhibitory concentration against human promyelocytic leukemia HL60 cell line. Format: functional, cell-based.
The species entered for the next assay is Homo sapiens. The assay can be described thus: Cytotoxic concentration required to reduce the cellular rRNA level in hepatitis C virus replicon cells. (In general: Replicon systems follow genome replication, usually without infectious particles.)
Assay [2] relates to HeLa. The assay can be described thus: In vitro inhibitory concentration against human cervix carcinoma HeLaS3 cell line. Format: functional, cell-based.
Assay [3] concerns L1210. The assay is described as follows: In vitro inhibitory concentration against mouse leukemia L1210 cell line. Type of assay: functional, cell-based.
A further assay deals with CCRF-CEM. The assay is described as follows: In vitro inhibitory concentration against human T lymphoblastoid CCRF-CEM cell line. Type of assay: functional, cell-based.
Assay [4] deals with HeLa. The assay is described as follows: In vitro inhibitory concentration against human cervix carcinoma HeLaS3 cell line; n.a. is not active. Format: functional, cell-based.
Assay [5] concerns HL-60. The assay is described as follows: In vitro inhibitory concentration against human promyelocytic leukemia HL60 cell line; n.a. is not active. Type of assay: functional, cell-based.
Assay [6] relates to L1210. The assay can be described thus: In vitro inhibitory concentration against mouse leukemia L1210 cell line; n.a. is not active. Type of assay: functional, cell-based.
The mark [7] stands for this setting: Homo sapiens, CCRF-CEM, read-out: IC50.

As a reminder, the EC90 is the concentration needed for an effect of 90%. A lower EC90 goes with an effect from little substance. The term IC50 denotes the concentration needed to halve the response being measured. Broadly, the CC50 is the concentration at which the toxic effect on the cells reaches its halfway point. High values mean lower toxicity to the cells, low ones greater toxicity to the cells. Regarding `OC[C@H]1O[C@@H](n2cnc3c(-c4ccccc4)ncnc32)[C@H](O)[C@@H]1O`, the 90% effect level in the assay on Hepatitis C virus (EC90) was put at 16.7 µM. In addition, half-maximal inhibition in the assay with HL-60 [1] (IC50) required 6.3 µM. In the assay filed under Homo sapiens, this compound displayed a half-maximal cytotoxic concentration (CC50) of 8.3 µM.

`OC[C@H]1O[C@@H](n2cnc3c(-c4cccs4)ncnc32)[C@H](O)[C@@H]1O` came in with an EC90 in the assay with Hepatitis C virus of 0.7 µM. Moreover, the concentration for half-maximal inhibition (IC50) in the assay on HL-60 [1] is 4.9 µM; in the assay with HeLa [2], 25 µM; in the assay on L1210 [3] it was 0.37 µM; with CCRF-CEM (setting [7]) it was 0.6 µM. In the assay listed under Homo sapiens, this compound yielded a CC50 of 1.1 µM.

On to `COc1ccc(-c2ncnc3c2ncn3C2O[C@H](CO)[C@@H](O)[C@H]2O)cc1` (stereo partly drawn), for which, in the assay with Hepatitis C virus, the concentration for an effect of 90% (EC90) was more than 100 µM. The IC50 with HL-60 [1] came out at 7.6 µM. The same compound had a CC50 in the assay filed under Homo sapiens of less than 10 µM.

Take `OC[C@H]1OC(n2cnc3c(-c4ccco4)ncnc32)[C@H](O)[C@@H]1O` (stereo partly drawn): the 90% effect concentration (EC90) in the assay with Hepatitis C virus turned out to be 0.4 µM. The IC50 was found to be 2.7 µM with HL-60 [1], 25 µM in the assay with HeLa [2], 2 µM in the assay on L1210 [3] and 0.6 µM in the assay with CCRF-CEM (setting [7]). The compound further showed a CC50 in the assay listed under Homo sapiens of 1.6 µM.

In turn, `OC[C@H]1OC(n2cnc3c(-c4ccc(O)cc4)ncnc32)[C@H](O)[C@@H]1O` (stereo partly drawn) came in with a concentration for an effect of 90% (EC90) in the assay on Hepatitis C virus of 2.6 µM. For the same compound, the IC50 amounted to 7.6 µM in the assay on HL-60 [1], 32.5 µM in the assay with HeLa [2], 5 µM with L1210 [3] and 1.25 µM with CCRF-CEM (setting [7]). Moreover, the midpoint of cytotoxicity in the assay filed under Homo sapiens, the CC50, lay at 5.2 µM.

On to `OC[C@H]1OC(n2cnc3c(-c4cc[nH]c4)ncnc32)[C@H](O)[C@@H]1O` (stereo partly drawn), for which the EC90 in the assay on Hepatitis C virus came to 0.14 µM. Moreover, the IC50 in the assay with HL-60 [1] is 3.2 µM; with HeLa [4], “Not Active”; in the assay on L1210 [3] it was 17.5 µM; in the assay on CCRF-CEM (setting [7]), 1.03 µM. In the assay filed under Homo sapiens, the cytotoxic concentration (CC50) was less than 0.1 µM.

As to `OC[C@H]1OC(n2cnc3c(-c4cc[nH]n4)ncnc32)[C@H](O)[C@@H]1O` (stereo partly drawn), the EC90 in the assay on Hepatitis C virus stood at 0.8 µM. Further, the IC50 is 1.17 µM with HL-60 [1], “Not Active” in the assay with HeLa [4], 19.8 µM in the assay on L1210 [3] and 0.75 µM with CCRF-CEM (setting [7]). The compound further registered a 50% cytotoxic concentration (CC50) in the assay listed under Homo sapiens of 0.6 µM.

In the assay with Hepatitis C virus, `Cc1cc(-c2ncnc3c2ncn3C2O[C@H](CO)[C@@H](O)[C@H]2O)on1` (stereo partly drawn) returned a concentration for an effect of 90% (EC90) of more than 100 µM. Also, the IC50 result with HL-60 [5], in the assay on HeLa [4], with L1210 [6] and in the assay on CCRF-CEM (ccrf-cem) was “Not Active” throughout. In addition, the 50% cytotoxic concentration (CC50) in the assay filed under Homo sapiens was more than 100 µM.

`Cn1nccc1-c1ncnc2c1ncn2C1O[C@H](CO)[C@@H](O)[C@H]1O` (stereo partly drawn) gave a concentration for an effect of 90% (EC90) in the assay on Hepatitis C virus of more than 100 µM. In addition, the 50% inhibitory concentration (IC50) result in the assay with HL-60 [5], in the assay on HeLa [4], in the assay on L1210 [6] and in the assay on CCRF-CEM (ccrf-cem) was “Not Active” each time. Moreover, in the assay listed under Homo sapiens, the 50% cytotoxic concentration (CC50) is more than 100 µM.

For `Cc1csc(-c2ncnc3c2ncn3C2O[C@H](CO)[C@@H](O)[C@H]2O)n1` (stereo partly drawn), the EC90 with Hepatitis C virus was more than 100 µM. Besides, the IC50 entry was “Not Active” in the assay on HL-60 [5], “Not Active” with HeLa [4], “Not Active” with L1210 [6] and 6 µM in the assay with CCRF-CEM (setting [7]). The same compound returned a 50% cytotoxic concentration (CC50) in the assay filed under Homo sapiens of more than 100 µM.

For the compound `OC[C@H]1OC(n2cnc3c(-c4cc5ccccc5o4)ncnc32)[C@H](O)[C@@H]1O` (stereo partly drawn), in the assay with Hepatitis C virus, the EC90 was more than 100 µM. The IC50 entry in the assay on HL-60 [5] was “Not Active”; in the assay with HeLa [4] it was “Not Active”; in the assay with L1210 [6] it was “Not Active”; with CCRF-CEM (setting [7]), 15 µM. This compound also yielded a CC50 in the assay listed under Homo sapiens of more than 100 µM.

`OC[C@H]1OC(n2cnc3c(-c4nccs4)ncnc32)[C@H](O)[C@@H]1O` (stereo partly drawn) registered a 90% effect concentration (EC90) with Hepatitis C virus of 6 µM. Also, the IC50 is 6.3 µM in the assay with HL-60 [1], “Not Active” in the assay with HeLa [4], 16 µM with L1210 [3] and 2.73 µM in the assay with CCRF-CEM (setting [7]). Further, in the assay listed under Homo sapiens, the half-maximal cytotoxic concentration (CC50) was found to be 6.7 µM.

For the compound `Cc1csc(-c2ncnc3c2ncn3C2O[C@H](CO)[C@@H](O)[C@H]2O)c1` (stereo partly drawn), it took 40.7 µM to reach the 90% level with Hepatitis C virus (EC90). Also, the half-maximal inhibitory concentration (IC50) in the assay on HL-60 [1] is 5.6 µM; in the assay with HeLa [2] it was 11.4 µM; in the assay on L1210 [6], “Not Active”; in the assay with CCRF-CEM (setting [7]), 2.9 µM. Further, it took 7 µM to reach half-maximal cytotoxicity in the assay filed under Homo sapiens (CC50).

Take `OC[C@H]1OC(n2cnc3c(-c4ccc(F)cc4)ncnc32)[C@H](O)[C@@H]1O` (stereo partly drawn): in the assay with Hepatitis C virus, the 90% effect level (EC90) was put at 49.5 µM. In addition, the IC50 worked out at 6.3 µM in the assay on HL-60 [1], 2.7 µM with HeLa [2] and 0.7 µM in the assay with CCRF-CEM (setting [7]). The midpoint of cytotoxicity in the assay filed under Homo sapiens, the CC50, lay at 9.2 µM.

Regarding `Cc1ccsc1-c1ncnc2c1ncn2C1O[C@H](CO)[C@@H](O)[C@H]1O` (stereo partly drawn), the 90% effect concentration (EC90) with Hepatitis C virus was more than 100 µM. For the same compound, the IC50 was 4.5 µM with HL-60 [1], more than 20 µM with HeLa [2], “Not Active” in the assay with L1210 [6] and 2.5 µM in the assay on CCRF-CEM (setting [7]). In the assay listed under Homo sapiens, this compound returned a CC50 of more than 100 µM.

With `Cn1cccc1-c1ncnc2c1ncn2C1O[C@H](CO)[C@@H](O)[C@H]1O` (stereo partly drawn), the concentration for an effect of 90% (EC90) in the assay on Hepatitis C virus is more than 100 µM. For the same compound, the half-inhibitory concentration (IC50) in the assay with HL-60 [1] was 15.7 µM; with HeLa [4], “Not Active”; in the assay on L1210 [6], “Not Active”; with CCRF-CEM (setting [7]), 2 µM. This compound also registered a CC50 in the assay filed under Homo sapiens of more than 100 µM.

Regarding `OC[C@H]1OC(n2cnc3c(-c4ccccn4)ncnc32)[C@H](O)[C@@H]1O` (stereo partly drawn), the 90% effect level with Hepatitis C virus (EC90) was put at 6 µM. Further, the half-inhibitory concentration (IC50) with HL-60 [1] came out at 5.6 µM; in the assay on HeLa [2], 9.7 µM; in the assay on L1210 [3], 4.3 µM; in the assay on CCRF-CEM (setting [7]), 0.9 µM. This compound also came in with a 50% cytotoxic concentration (CC50) in the assay listed under Homo sapiens of 2.7 µM.

For the compound `OC[C@H]1OC(n2cnc3c(-c4ccsc4)ncnc32)[C@H](O)[C@@H]1O` (stereo partly drawn), it took 0.82 µM to reach the 90% level in the assay with Hepatitis C virus (EC90). The IC50 was 3.8 µM in the assay on HL-60 [1], “Not Active” with HeLa [4], 10.8 µM in the assay with L1210 [3] and 1.64 µM with CCRF-CEM (setting [7]). Besides, in the assay filed under Homo sapiens, the half-maximal cytotoxic concentration (CC50) was less than 0.1 µM.

Compound `OC[C@H]1OC(n2cnc3c(-c4ccoc4)ncnc32)[C@H](O)[C@@H]1O` (stereo partly drawn) yielded an EC90 in the assay with Hepatitis C virus of 1.4 µM. Moreover, the 50% inhibitory concentration (IC50) with HL-60 [1] is 3.3 µM; in the assay with HeLa [4] it was “Not Active”; in the assay on L1210 [6], “Not Active”; with CCRF-CEM (setting [7]), 1.65 µM. Also, the 50% cytotoxic concentration (CC50) in the assay filed under Homo sapiens stood at 6.9 µM.

As to `OC[C@H]1OC(n2cnc3c(-c4ccc(Cl)cc4)ncnc32)[C@H](O)[C@@H]1O` (stereo partly drawn), the 90% effect concentration (EC90) in the assay on Hepatitis C virus is more than 100 µM. Besides, the IC50 entry in the assay with HL-60 [5] and in the assay with L1210 [6] was “Not Active” throughout. Moreover, in the assay filed under Homo sapiens, the CC50 was more than 100 µM.

Take `C[C@@]1(O)[C@H](O)[C@@H](CO)O[C@H]1n1cnc2c(N)ncnc21`: the EC90 in the assay on Hepatitis C virus came out at 1.14 µM. Besides, it took 15 µM to reach half-maximal cytotoxicity in the assay filed under Homo sapiens (CC50).
